Reference: patent US6156700A, “3-(1,2-Benzisothiazol- and isoxazol-5-yl)-2,4(1H,3H)-pyrimidinedione or thione and 3-(1,2-benzisothiazol- and isoxazol-5-yl)-4(3H)-pyrimidinone or thione herbicidal agents” (American Cyanmid Company, priority 1998, dated 2000)

Columns and labels:
Experiment in all cases: Preemergence herbicidal evaluation
ORYSAT = assay type: in vivo, Oryza sativa; parameters: scale not given here
Description: (§1) The preemergence and postemergence herbicidal properties of certain compounds of the present invention are compared with certain compounds disclosed in U.S. Pat. Nos. 5,484,763 and 5,523,278. The evaluations are performed as described in Examples 185 and 186. Data in Tables V and VI are reported by the compound number given in Example 185 for the compounds of this invention or by comparative compound letter for the compounds disclosed in U.S. Pat. Nos. 5,484,763 and 5,523,278.

CASOB = assay type: in vivo; parameters: scale not given here
Description: as §1

SETVI = assay type: in vivo; parameters: scale not given here
Description: as §1

ABUTH = assay type: in vivo; parameters: scale not given here
Description: as §1

TRZAWR = assay type: in vivo; parameters: scale not given here
Description: as §1

ECHCG = assay type: in vivo; parameters: scale not given here
Description: as §1

AMBEL = assay type: in vivo; parameters: scale not given here
Description: as §1

CHEAL = assay type: in vivo; parameters: scale not given here
Description: as §1

GALAP = assay type: in vivo; parameters: scale not given here
Description: as §1

ZEAMX = assay type: in vivo; parameters: scale not given here
Description: as §1

GLXMAW = assay type: in vivo; parameters: scale not given here
Description: as §1

IPOHE = assay type: in vivo
Description: as §1

`CN(C)C(=O)c1nsc2ccc(-n3c(=O)cc(C(F)(F)F)n(C)c3=O)cc12` [Compound 329, 1,2-Benzisothiazole-3-carboxamide,5-[3,6-dihydro-3-methyl-2,6-dioxo-4-(trifluoromethyl)-1(2H)-pyrimidinyl]-N,N-dimethyl-] gave a herbicidal effect rating (ORYSAT; 0.0156-0.0160 kg/ha) of 1.5, a herbicidal effect rating (ORYSAT; 0.0313-0.0320 kg/ha) of 2.5 and a herbicidal effect rating (ORYSAT; 0.0620-0.0630 kg/ha) of 5.0. For the same compound, the herbicidal effect rating (ORYSAT; 0.1250 kg/ha) was 6.5, the herbicidal effect rating (ORYSAT; 0.2500 kg/ha) was 8.0 and the herbicidal effect rating (CASOB; 0.0156-0.0160 kg/ha) was 0.5. It also gave a herbicidal effect rating (CASOB; 0.0313-0.0320 kg/ha) of 2.0, a herbicidal effect rating (CASOB; 0.0620-0.0630 kg/ha) of 7.0 and a herbicidal effect rating (CASOB; 0.1250 kg/ha) of 9.0. The herbicidal effect rating (CASOB; 0.2500 kg/ha) was 8.5, the herbicidal effect rating (SETVI; 0.0156-0.0160 kg/ha) was 1.5 and the herbicidal effect rating (SETVI; 0.0313-0.0320 kg/ha) was 2.5. The herbicidal effect rating (SETVI; 0.0620-0.0630 kg/ha) was 9.0, the herbicidal effect rating (SETVI; 0.1250 kg/ha) was 9.0 and the herbicidal effect rating (SETVI; 0.2500 kg/ha) was 9.0. It also gave a herbicidal effect rating (ABUTH; 0.0156-0.0160 kg/ha) of 9.0, a herbicidal effect rating (ABUTH; 0.0313-0.0320 kg/ha) of 9.0 and a herbicidal effect rating (ABUTH; 0.0620-0.0630 kg/ha) of 9.0. It also gave a herbicidal effect rating (ABUTH; 0.1250 kg/ha) of 9.0, a herbicidal effect rating (ABUTH; 0.2500 kg/ha) of 9.0 and a herbicidal effect rating (TRZAWR; 0.0156-0.0160 kg/ha) of 1.0. The herbicidal effect rating (TRZAWR; 0.0313-0.0320 kg/ha) was 2.0, the herbicidal effect rating (TRZAWR; 0.0620-0.0630 kg/ha) was 4.0 and the herbicidal effect rating (TRZAWR; 0.1250 kg/ha) was 6.0. The herbicidal effect rating (TRZAWR; 0.2500 kg/ha) was 7.0, the herbicidal effect rating (ECHCG; 0.0156-0.0160 kg/ha) was 0.0 and the herbicidal effect rating (ECHCG; 0.0313-0.0320 kg/ha) was 1.0. The herbicidal effect rating (ECHCG; 0.0620-0.0630 kg/ha) was 4.5, the herbicidal effect rating (ECHCG; 0.1250 kg/ha) was 7.0 and the herbicidal effect rating (ECHCG; 0.2500 kg/ha) was 9.0. For the same compound, the herbicidal effect rating (AMBEL; 0.0156-0.0160 kg/ha) was 3.0, the herbicidal effect rating (AMBEL; 0.0313-0.0320 kg/ha) was 7.0 and the herbicidal effect rating (AMBEL; 0.0620-0.0630 kg/ha) was 8.0. It also gave a herbicidal effect rating (AMBEL; 0.1250 kg/ha) of 9.0, a herbicidal effect rating (AMBEL; 0.2500 kg/ha) of 9.0 and a herbicidal effect rating (CHEAL; 0.0156-0.0160 kg/ha) of 9.0. The herbicidal effect rating (CHEAL; 0.0313-0.0320 kg/ha) was 9.0, the herbicidal effect rating (CHEAL; 0.0620-0.0630 kg/ha) was 9.0 and the herbicidal effect rating (CHEAL; 0.1250 kg/ha) was 9.0. It also gave a herbicidal effect rating (CHEAL; 0.2500 kg/ha) of 9.0, a herbicidal effect rating (GALAP; 0.0156-0.0160 kg/ha) of 1.0 and a herbicidal effect rating (GALAP; 0.0313-0.0320 kg/ha) of 1.0. For the same compound, the herbicidal effect rating (GALAP; 0.0620-0.0630 kg/ha) was 6.0, the herbicidal effect rating (GALAP; 0.1250 kg/ha) was 9.0 and the herbicidal effect rating (GALAP; 0.2500 kg/ha) was 9.0. It also gave a herbicidal effect rating (ZEAMX; 0.0156-0.0160 kg/ha) of 1.5, a herbicidal effect rating (ZEAMX; 0.0313-0.0320 kg/ha) of 2.5 and a herbicidal effect rating (ZEAMX; 0.0620-0.0630 kg/ha) of 6.5. It also gave a herbicidal effect rating (ZEAMX; 0.1250 kg/ha) of 7.0, a herbicidal effect rating (ZEAMX; 0.2500 kg/ha) of 7.5 and a herbicidal effect rating (GLXMAW; 0.0156-0.0160 kg/ha) of 5.0. The herbicidal effect rating (GLXMAW; 0.0313-0.0320 kg/ha) was 6.0, the herbicidal effect rating (GLXMAW; 0.0620-0.0630 kg/ha) was 7.5 and the herbicidal effect rating (GLXMAW; 0.1250 kg/ha) was 9.0. For the same compound, the herbicidal effect rating (GLXMAW; 0.2500 kg/ha) was 8.0, the herbicidal effect rating (IPOHE; 0.0156-0.0160 kg/ha) was 2.5 and the herbicidal effect rating (IPOHE; 0.0313-0.0320 kg/ha) was 4.0. For the same compound, the herbicidal effect rating (IPOHE; 0.0620-0.0630 kg/ha) was 8.0, the herbicidal effect rating (IPOHE; 0.1250 kg/ha) was 9.0 and the herbicidal effect rating (IPOHE; 0.2500 kg/ha) was 9.0.
